Results published in publication PMC5588548, “Suramin Inhibits Osteoarthritic Cartilage Degradation by Increasing Extracellular Levels of Chondroprotective Tissue Inhibitor of Metalloproteinases 3” (Molecular Pharmacology, 2017).
“Also recorded” adds a separate entry of the source. Where a name gives a salt, the structure may show the parent alone. Read-outs that look alike come from different tables or passages of the source.

Tests used:
human TIMP-3 = target: T1, human TIMP-3 (Homo sapiens, UniProt P35625); assay: Solid-phase binding of TIMP-3 to immobilized suramin or analogs (ELISA); details: TIMP-3 0.4–50 nM; for EC50: plates coated with 10 µg/ml compound, one-site specific binding model, mean ± S.E., n = 3; for Kd: solid-phase binding assay, plates coated 10 µg/ml, read-out: KD value for TIMP-3 binding to immobilized compound
T1 construct: made in house; host or cells: human embryonic kidney 293 cells
T1 sequence (P35625 24-211): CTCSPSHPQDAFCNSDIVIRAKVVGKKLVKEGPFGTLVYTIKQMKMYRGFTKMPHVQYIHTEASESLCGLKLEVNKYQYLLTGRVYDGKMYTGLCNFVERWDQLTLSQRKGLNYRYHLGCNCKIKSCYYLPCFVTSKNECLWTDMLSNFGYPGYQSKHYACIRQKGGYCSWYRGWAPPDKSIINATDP
Procedure: Glycosaminoglycan-binding ELISA plates (BD Life Sciences, Swindon, UK) were coated with suramin or its analogs (10 µg/ml in Tris-buffered saline, 18 hours, 25°C) ([Mahoney et al., 2004]) and wells were blocked with 0.2% gelatin in PBS (1 hour, 37°C). Wells were washed in PBS containing 0.1% Tween 20 after this and every subsequent step. Purified FLAG-tagged human TIMP-3 (0.4–50 nM) in blocking solution was applied to wells (3 hours, 37°C), and binding was detected with anti-FLAG M2 primary antibody and anti-mouse horseradish peroxidase–conjugated secondary antibody. 3,3′,5,5′-Tetramethylbenzidine (Becton Dickinson, Swindon, UK) substrate was added, the reaction was stopped when appropriate by adding 2 N H2SO4, and absorbance at 450 nm was measured using a FLUOstar Omega microplate reader (BMG Labtech, Aylesbury, Buckinghamshire, UK). Data (mean ± S.E., n = 3 technical repeats) were analyzed using Prism 7.0b software (GraphPad Software, La Jolla, CA) and EC50 values determined using a one-site specific binding model. Flat planar dimensions of suramin analogs were estimated using ICM-Pro software (Molsoft LLC, San Diego, CA).

[1] = tested on: porcine cartilage explants; assay: Aggrecan release from porcine cartilage explants (DMMB assay, neo-epitope immunoblotting); type: cell-based; details: porcine cartilage explants; for IC50: Sus scrofa; for protection of cartilage (release of aggrecan fragments) compared with suramin: 200 µg/ml compound
Procedure: The effects of suramin on cartilage degradation were assessed using porcine or human cartilage explants. Explants were rested for 48 hours after dissection and were washed with serum-free DMEM. […]
Aggrecan degradation was analyzed by quantifying aggrecan fragments released into the conditioned media using the dimethylmethylene blue (DMMB) dye-binding assay ([Farndale et al., 1986]) (mean ± S.D., n = 3) and by immunoblotting with neo-epitope antibodies that recognize ADAMTS-cleaved but not intact aggrecan. For immunoblotting, conditioned media were deglycosylated by adding an equal volume of 200 mM sodium acetate and 50 mM Tris/HCl, pH 6.8, containing chondroitinase and β-endoglycosidase (0.05 U each; 18 hours, 37°C; Sigma-Aldrich). Aggrecan fragments were precipitated by adding five volumes of ice-cold acetone (18 hours, −20°C). After centrifugation (13,000 rpm, 10 minutes, 4°C), pellets were resuspended in SDS sample buffer, separated by electrophoresis on a 6% (v/v) polyacrylamide gel, and blotted onto polyvinylidene fluoride. Membranes were blocked with 5% (m/v) BSA in Tris-buffered saline and incubated with either a rabbit antibody that recognizes the AGEG neo-epitope generated by ADAMTS cleavage of the TAQE^1771∼^1772AGEG bond of aggrecan ([Troeberg et al., 2008]) or a mouse antibody that recognizes the ARGSV neo-epitope generated by ADAMTS cleavage of the NITEGE^373∼^374ARGSV bond ([Hughes et al., 1995]).

[2] = tested on: HTB94 chondrosarcoma cells; assay: Accumulation of endogenous TIMP-3 in medium of HTB94 cells; type: cell-based; details: 200 µg/ml compound, 36 hours, immunoblotting
Procedure: Cells (HTB94 chondrosarcoma cells, primary porcine chondrocytes, or human osteoarthritic chondrocytes) were plated overnight (6 × 10^5 cells per well of a 12-well plate) in DMEM containing 10% FCS and washed three times in serum-free DMEM.
Media were harvested, precipitated with trichloroacetic acid, and analyzed by immunoblotting using a rabbit anti–TIMP-3 polyclonal antibody (AB6000; Millipore, Hertfordshire, UK) and an alkaline phosphatase–conjugated anti-rabbit secondary antibody (Promega). […]

[3] = tested on: purinergic signaling in chondrocytes; set-up: method as in Varani et al., 2008; details: compared with suramin; ref Varani et al., 2008; cited from earlier work
[4] = retinoic acid 1 µM, 48 hours, DMMB assay

## O=C(Nc1cccc(C(=O)Nc2ccc(S(=O)(=O)O)c3cc(S(=O)(=O)O)cc(S(=O)(=O)O)c23)c1)Nc1cccc(C(=O)Nc2ccc(S(=O)(=O)O)c3cc(S(=O)(=O)O)cc(S(=O)(=O)O)c23)c1 [NF023, 8,8′-[carbonylbis(imino-3,1-phenylenecarbonylimino)]bis-1,3,5-naphthalene-trisulphonic acid, hexasodium salt]
Human TIMP-3
  EC50: 26.5 ± 7.5 nM

## O=C(Nc1cc(C(=O)Nc2ccc(S(=O)(=O)O)cc2)cc(C(=O)Nc2ccc(S(=O)(=O)O)cc2)c1)Nc1cc(C(=O)Nc2ccc(S(=O)(=O)O)cc2)cc(C(=O)Nc2ccc(S(=O)(=O)O)cc2)c1 [NF110, 4,4′,4′′,4′′′-[carbonylbis[imino-5,1,3-benzenetriylbis(carbonylimino)]]tetrakisbenzenesulfonic acid tetrasodium salt]
Human TIMP-3
  EC50: 6.88 ± 0.96 nM

## O=C(Nc1cccc(C(=O)Nc2cc(C(=O)Nc3ccc(S(=O)(=O)O)c4cc(S(=O)(=O)O)cc(S(=O)(=O)O)c34)ccc2F)c1)Nc1cccc(C(=O)Nc2cc(C(=O)Nc3ccc(S(=O)(=O)O)c4cc(S(=O)(=O)O)cc(S(=O)(=O)O)c34)ccc2F)c1 [NF157, 8,8′-[carbonylbis[imino-3,1-phenylenecarbonylimino(4-fluoro-3,1-phenylene)carbonylimino]]bis-1,3,5-naphthalenetrisulfonic acid hexasodium salt]
Human TIMP-3
  EC50: 1.55 ± 0.11 nM
  Kd: 1.5 ± 0.11 nM

## O=C(Nc1ccc(C(=O)Nc2ccc(C(=O)Nc3ccc(S(=O)(=O)O)c4cc(S(=O)(=O)O)cc(S(=O)(=O)O)c34)cc2)cc1)Nc1ccc(C(=O)Nc2ccc(C(=O)Nc3ccc(S(=O)(=O)O)c4cc(S(=O)(=O)O)cc(S(=O)(=O)O)c34)cc2)cc1 [NF279, 8,8′-[carbonylbis(imino-4,1-phenylenecarbonylimino-4,1-phenylenecarbonylimino)]bis-1,3,5-naphthalenetrisulfonic acid hexasodium salt]
[1]; 48 h, retinoic acid 1 µM, 48 hours, DMMB assay, read-out: IC50 for inhibition of aggrecan release
  IC50: 15.6 ± 10 µg/mL
[1]; µg/ml value given in molar units, read-out: IC50 for chondroprotective activity
  IC50: 11600 nM
[1]
  improvement of IC50 value relative to suramin: 6 fold
[1]; [4]
  protection of cartilage (release of aggrecan fragments) compared with suramin: markedly improved activity
  IC50 for inhibition of aggrecan release: 15 µg/mL
Human TIMP-3
  EC50: 0.85 ± 0.09 nM
  Kd: 0.85 ± 0.09 nM
[2]
  TIMP-3 accumulation in the medium relative to suramin, defined as 100%: 233% ± 73%
[3]
  inhibition of purinergic signaling in chondrocytes: less effective than suramin

## Cc1ccc(C(=O)Nc2cc(S(=O)(=O)[O-])cc3ccc(S(=O)(=O)[O-])cc23)cc1NC(=O)Nc1cc(C(=O)Nc2cc(S(=O)(=O)[O-])cc3ccc(S(=O)(=O)[O-])cc23)ccc1C.[Na+].[Na+].[Na+].[Na+] [NF340, 4,4′-(carbonylbis(imino-3,1-(4-methyl-phenylene)carbonylimino))bis(naphthalene-2,6-disulfonic acid) tetrasodium salt]
[1]; [4]
  protection of cartilage (release of aggrecan fragments) compared with suramin: less effective
Human TIMP-3
  EC50: > 100 nM
[2]
  TIMP-3 accumulation in the medium relative to suramin, defined as 100%: minimal efficacy; also recorded: less effective

## O=C(Nc1cc(C(=O)Nc2ccc(S(=O)(=O)O)cc2S(=O)(=O)O)cc(C(=O)Nc2ccc(S(=O)(=O)O)cc2S(=O)(=O)O)c1)Nc1cc(C(=O)Nc2ccc(S(=O)(=O)O)cc2S(=O)(=O)O)cc(C(=O)Nc2ccc(S(=O)(=O)O)cc2S(=O)(=O)O)c1 [NF449, 4,4′,4′′,4′′′-[carbonylbis(imino-5,1,3-benzenetriyl-bis(carbonylimino))]tetrakis-1,3-benzenedisulfonic acid, octasodium salt]
Human TIMP-3
  EC50: 4.66 ± 0.69 nM

## Cc1ccc(C(=O)Nc2ccc(CP(=O)([O-])O)cc2CP(=O)([O-])O)cc1NC(=O)c1cccc(NC(=O)Nc2cccc(C(=O)Nc3cc(C(=O)Nc4ccc(CP(=O)([O-])O)cc4CP(=O)([O-])O)ccc3C)c2)c1.[Na+].[Na+].[Na+].[Na+] [NF546, 4,4′-(carbonylbis(imino-3,1-phenylene-carbonylimino-3,1-(4-methyl-phenylene)carbonylimino))-bis(1,3-xylene-α,α′-diphosphonic acid tetrasodium salt]
Human TIMP-3
  EC50: > 100 nM

## Cc1ccc(C(=O)Nc2ccc(CP(=O)([O-])O)cc2CP(=O)([O-])O)cc1NC(=O)c1cccc(NC(=O)Nc2cccc(C(=O)Nc3cc(C(=O)Nc4ccc(CP(=O)([O-])O)cc4CP(=O)([O-])O)ccc3C)c2)c1.[Na+].[Na+].[Na+].[Na+] [NF546]
[1]; [4]
  protection of cartilage (release of aggrecan fragments) compared with suramin: less effective
[2]
  TIMP-3 accumulation in the medium relative to suramin, defined as 100%: minimal efficacy; also recorded: less effective
